Data published in patent US8536137B2, “Methods for treating nucleoside-induced pain” (UCB Pharma GmbH, priority 2004, dated 2013).

Assays:
[1] = tested on: rats intoxicated with anti-retroviral nucleoside analogue AIDS therapy drugs; settings: intoxicated animals; literature report; cited from earlier work
vincristine-rats [2] = assay: Vincristine-induced pain model: hot plate test at 38° C. (thermal allodynia); format: in vivo, rat; settings: day 17
Method: (§1) For this study, 86 female Dark Agouti rats (150-200 g) were used (Harlan, Gannat, France), They were group-housed (3 animals per cage) and maintained in a room with controlled temperature (21-22° C.) and a reversed light-dark cycle (12 h/12 h) with food and water available ad libitum. All experiments were carried out in accordance with institutional guidelines. Vincristine intoxication was achieved by daily injection of vincristine (0.15 mg/kg/d, i.p.) from day 1 to 5, from day 8 to 12 and days 15 to 16. On day 17, animals were submitted to the behavioral test and received pharmacological treatment.
(§2) Animals were placed into a glass cylinder on a hot plate (Bioblock, France) adjusted to 38° C. or 52° C. The latency of the first reaction (licking, moving the paws, little leaps or a jump to escape the heat) was recorded with a cut off time of 30 s.
(§3) ANOVA followed by post-hoc analysis (Dunneft's test) was used to compare groups of behavioral data in each individual time points.

ddC-rats [3] = assay: Nucleoside-induced pain model (ddC): cold bath test (thermal allodynia); format: in vivo, rat; settings: for threshold latency in cold bath test vs ddC/vehicle: p<0.05 Dunnett's, comparable to control animals
Method: (§4) Animals were placed on ice platform submerged approximately 1 cm below the surface of cold water (4° C.), such that the hairy and glabrous skin of the animal feet was in contact with the cold water. The latency before the first reaction (licking, moving the paws, little leaps) was recorded with a cut off time of 30 s.
as §3
(§5) For this study, 50 male Sprague Dawley (˜220 g) rats were used (Janvier, Le Genest-St-isle, France). Rats were group-housed (3 animals per cage) and maintained in a room with controlled temperature (21-22° C.) and a reversed light-dark cycle (12 h/12 h) with food and water available ad libitum. All experiments were carried out in accordance with institutional guidelines. Intoxication was achieved by a single injection of ddC (50 mg/kg, I.V. in tail vein).

ddC-rats [4] = assay: Nucleoside-induced pain model (ddC): paw pressure test at D10 (mechanical hyperalgesia); format: in vivo, rat; settings: p<0.05 Dunnett's
Excerpt: (§6) The nociceptive flexion reflex was quantified using the Randall-Selitto paw pressure device (Bioseb, France), which applies a linearly increasing mechanical force to the dorsum of the rat's hind paw. The mechanical nociceptive threshold was defined as the force in grams at which the rat withdrew its paw. The cut off pressure was set to 250 g.
as §3, §5

ddC-rats [5] = assay: Nucleoside-induced pain model (ddC): brushing test at day 20 (mechanical allodynia); format: in vivo, rat
Method: as §3, §5
The hair on the legs, flanks, and lower back was sequentially brushed with a cotton-tipped applicator using an oscillating motion (rate of 1-2/s; 30 sec). Brushing was done with no more force than required to move the applicator through the hair such that only the pelage is disturbed. Vocalization and moderate effects to avoid the brushing were counted.

vincristine-rats [6] = assay: Vincristine-induced pain model: paw pressure test (mechanical hyperalgesia); format: in vivo, rat; settings: day 17; for paw withdrawal latency in paw pressure test (Randall & Selitto): p<0.05 Dunnett's
Method: as §1, §6, §3

vincristine-rats [7] = assay: Vincristine-induced pain model: von Frey hair stimulation test (mechanical allodynia); format: in vivo, rat; settings: day 17; for paw withdrawal latency in von Frey filament test, difference with vehicle-treated group: p<0.05 Dunnett's
Method: as §1
(§7) Rats were placed on a metallic grid floor. The nociceptive testing was done by inserting the von Frey filament (Bioseb, France) through the grid floor and applying it to the plantar surface of the hind paw. A trial consisted of several applications of the different von Frey filaments (at a frequency of 1-1.5 s). The von Frey filaments were applied from filament 10 g to 100 g. The mechanical allodynia threshold was recorded as soon as the animal removed its hind paw the test was stopped and the filament number was recorded.
as §3

ddC-rats [8] = assay: Nucleoside-induced pain model (ddC): von Frey filament test at D10 (mechanical allodynia); format: in vivo, rat; settings: for paw withdrawal latency in von Frey filament test, difference with vehicle-treated group: p<0.05, level comparable to control group
Method: as §7, §3, §5

vincristine-rats [9] = assay: Vincristine-induced pain model: cold bath test (thermal allodynia); format: in vivo, rat; settings: day 17; for threshold latency in cold bath test vs vincristine/vehicle: 30 min before test
Method: as §1, §4, §3

vincristine-rats [10] = assay: Vincristine-induced pain model: hot plate test at 52° C. (thermal hyperalgesia); format: in vivo, rat; settings: day 17, p<0.05 Dunnett's, comparable with control
Method: as §1, §2, §3

[11] = tested on: rat model of bone cancer pain, chemotherapy- and nucleoside-induced pain; assay: Overall summary of the bone cancer, chemotherapy-induced and nucleoside-induced pain models; format: in vivo; settings: across the three rat models
Excerpt: The effect of systemic administration of SPM 927 was examined in rats in a tumor-induced bone cancer pain model, in a chemotherapy-induced and a nucleoside analogue-induced neuropathic pain model. SPM 927 reduced mechanical and thermal hyperalgesia as well as mechanical and thermal allodynia in these models.

ddC-rats [12] = assay: Nucleoside-induced pain model (ddC): hot plate test at 52° C. at D20 (thermal hyperalgesia); format: in vivo, rat
Method: as §2, §3, §5

[13] = tested on: bone cancer rats (MRMT-1 rat mammary gland carcinoma cells injected into the tibia); assay: Bone cancer rat model: thermal paw stimulation (thermal hyperalgesia); format: in vivo; settings: SPM 927 30 mg/kg, days 14 and 15; Dunnett's p<0.001
Method: Cells were cultured in medium containing RPMI-1640 (Gibco, 500 ml), 10% heat-inactivated fetal bovine serum (Hyclone), L-glutamine (final concentration 2 mM, from Gibco) and antibiotic solution (final concentration 100 U/ml penicillin and 100 ug/ml streptomycin sulfate, from Gibco). Cells were released from the tissue culture flask by brief exposure to 0.1% trypsin so (Gibco) and then prepared for injection as follows: cells were centrifuged for 10 minutes at approximately 1,200 rpm. The resulting pellet was washed twice in Phosphate Buffered Saline (PBS, Mediatech) containing no calcium or magnesium. Final pellet was re-suspended in PBS and cell count taken using a hemocytometer. Cells were diluted to achieve final concentrations for injection and kept on ice until injection was performed.
After one week of quarantine, either culture media or 3×10^4 syngeneic MRMT-1 rat mammary gland carcinoma cells were injected into the medullary cavity of the proximal tibia of each rat. Procedurally, the animal was first anesthetized with ketamine/xylazine and the right leg area shaved and treated with an iodine solution and cleaned with a 70% ethanol solution. A 1-cm rostral-caudal incision was made in the skin over the top half of the tibia. […]
On days 7, 8, 14 and 15, pain assessment tests were performed. […] The animals were first evaluated for mechanical allodynia and then thermal hyperalgesia. […]

[14] = tested on: bone cancer rats (MRMT-1 rat mammary gland carcinoma cells injected into the tibia); assay: Bone cancer rat model: weight bearing difference (mechanical hyperalgesia); format: in vivo; settings: SPM 927 40 mg/kg, following treatment; p<0.05
Method: After one week of quarantine, either culture media or 3×10^4 syngeneic MRMT-1 rat mammary gland carcinoma cells were injected into the medullary cavity of the proximal tibia of each rat. Procedurally, the animal was first anesthetized with ketamine/xylazine and the right leg area shaved and treated with an iodine solution and cleaned with a 70% ethanol solution. A 1-cm rostral-caudal incision was made in the skin over the top half of the tibia. Blunt-dissection was performed to expose the tibia, ensuring minimal damage to muscles or blood vessels. Using a 23-gauge needle, the tibia was pierced. […] The needle was inserted at an angle to enable it to be pushed down into the intramedullary canal of the bone. Once a pathway to the intramedullary canal was opened, the 23-gauge needle was removed and replaced by a blunt needle attached to a 5 μl Hamilton syringe. […]
On days 7, 8, 14 and 15, pain assessment tests were performed. […] The animals were first evaluated for mechanical allodynia and then thermal hyperalgesia. […] The animals were first evaluated for baseline weight bearing responses. […]
After the animals in groups 4-6 were re-randomized to drug treatment groups, on day 9, 15 all animals underwent weight-bearing testing. Weight bearing of affected hind limbs was assessed as the difference in weight borne by the ipsilateral compared to the contralateral limb. […]

For `CCN(CC)CCCCCCCCOC(=O)c1cc(OC)c(OC)c(OC)c1` [TMB-8], the “reversal of nucleoside reverse transcriptase inhibitor-induced hypersensitivity” value [1] is given as “capable of reversing”.
In the case of `CN1CC[C@]23c4c5ccc(O)c4O[C@H]2[C@@H](O)C=C[C@H]3[C@H]1C5` [morphine, reference compound], the “threshold latency in hot plate (38° C.) test, level reached” value (vincristine-rats [2]; morphine 3 mg/kg s.c.) was “comparable with that of control rats”, the “threshold latency in cold bath test, level reached” value (ddC-rats [3]; morphine 3 mg/kg s.c.) was “comparable to that obtained from control rats” and the “performance in paw pressure test (Randall & Selitto)” value (ddC-rats [4]; morphine 3 mg/kg s.c.) was “increased the performance”. The “total number of cries in brushing test” value (ddC-rats [5]; morphine 3 mg/kg s.c., D 20) was “significantly decrease”, the “performance in paw pressure test (Randall & Selitto)” value (vincristine-rats [6]; morphine 3 mg/kg s.c., p>0.05) was “did not modify the performance” and the “performance in von Frey filament test” value (vincristine-rats [7]; morphine 3 mg/kg s.c.) was “restored the performance of vincristine-rats to a level comparable with that of control group”. The “performance in von Frey filament test” value (ddC-rats [8]; morphine 3 mg/kg s.c.) was “restored the performance of ddC-rats to a level similar to control group” and the “threshold latency in cold bath test, level reached” value (vincristine-rats [9]; morphine 3 mg/kg s.c., 45 min before test) was “far above that obtained from control rats”.
In the case of `COC[C@@H](NC(C)=O)C(=O)NCc1ccccc1` [SPM 927, (R)-2-acetamide-N-benzyl-3-methoxypropionamide], the “threshold latency in hot plate (38° C.) test vs vincristine/vehicle” value (vincristine-rats [2]; SPM 927 3 mg/kg i.p.) was “significant (p<0.05, Dunneft's test) increase”, the “threshold latency in hot plate (38° C.) test vs vincristine/vehicle” value (vincristine-rats [2]; SPM 927 10 mg/kg i.p., comparable with control animals) was “significant (p<0.05, Dunneft's test) increase” and the “threshold latency in hot plate (38° C.) test vs vincristine/vehicle” value (vincristine-rats [2]; SPM 927 30 mg/kg i.p., comparable with control animals) was “significant (p<0.05, Dunneft's test) increase”. For the same compound, the “paw withdrawal latency in hot plate test at 52° C. vs vehicle-treated animals” value (vincristine-rats [10]; SPM 927 3 mg/kg i.p.) was “significant increase”, the “paw withdrawal latency in hot plate test at 52° C. vs vehicle-treated animals” value (vincristine-rats [10]; SPM 927 10 mg/kg i.p.) was “significant increase” and the “paw withdrawal latency in hot plate test at 52° C. vs vehicle-treated animals” value (vincristine-rats [10]; SPM 927 30 mg/kg i.p.) was “significant increase”. The “threshold latency in cold bath test vs ddC/vehicle” value (“threshold latency … vs ddC/vehicle” below) (ddC-rats [3]; SPM 927 3 mg/kg i.p.) was “significant increase”, the “threshold latency … vs ddC/vehicle” value (ddC-rats [3]; SPM 927 10 mg/kg i.p.) was “significant increase” and the “threshold latency … vs ddC/vehicle” value (ddC-rats [3]; SPM 927 30 mg/kg i.p.) was “significant increase”. For the same compound, the “analgesic activity compared with morphine” value ([11]; systemic administration) was “overall more active than morphine”, the “anti-allodynic and anti-hyperalgesic effect” value ([11]; systemic, single dose administration) was “dose-dependent” and the “paw withdrawal latency in paw pressure test (Randall & Selitto)” value (from here on “paw withdrawal latency … (Randall & Selitto)”) (ddC-rats [4]; SPM 927 3 mg/kg i.p.) was “significant increase”. For the same compound, the “paw withdrawal latency … (Randall & Selitto)” value (ddC-rats [4]; SPM 927 10 mg/kg i.p.) was “significant increase”, the “paw withdrawal latency … (Randall & Selitto)” value (ddC-rats [4]; SPM 927 30 mg/kg i.p.) was “significant increase” and the “paw withdrawal latency in hot plate test at 52° C., effect” value (ddC-rats [12]; SPM 927 3 mg/kg i.p.) was “comparable with untreated vehicle group”. The “paw withdrawal latency in hot plate test at 52° C., effect” value (ddC-rats [12]; SPM 927 10 mg/kg i.p.) was “comparable with untreated vehicle group”, the “paw withdrawal latency in hot plate test at 52° C. vs vehicle-treated animals” value (ddC-rats [12]; SPM 927 30 mg/kg i.p., p<0.05 Dunnett's) was “significant increase” and the “latency to remove paw (thermal paw testing), post-treatment vs 'cells only'” value [13] was “different”. For the same compound, the “amount of weight placed on contralateral paw (weight bearing difference) vs 'cells only' group” value [14] was “significant reduction”, the “total number of cries in brushing test” value (ddC-rats [5]; SPM 927 3 mg/kg i.p., D 20, p<0.05 Dunnett's) was “significant decrease” and the “total number of cries in brushing test” value (ddC-rats [5]; SPM 927 10 mg/kg i.p., D 20, p<0.05 Dunnett's) was “significant decrease”. The “total number of cries in brushing test” value (ddC-rats [5]; SPM 927 30 mg/kg i.p., D20, p<0.05 Dunnett's) was “significant decrease”, the “paw withdrawal latency … (Randall & Selitto)” value (vincristine-rats [6]; SPM 927 10 mg/kg i.p.) was “significant increase” and the “paw withdrawal latency … (Randall & Selitto)” value (vincristine-rats [6]; SPM 927 30 mg/kg i.p.) was “significant increase”. For the same compound, the “paw withdrawal latency in von Frey filament test, difference with vehicle-treated group” value (vincristine-rats [7]; SPM 927 10 mg/kg i.p.) was “reached the significance level”, the “paw withdrawal latency in von Frey filament test, difference with vehicle-treated group” value (vincristine-rats [7]; SPM 927 30 mg/kg i.p.) was “reached the significance level” and the “paw withdrawal latency in von Frey filament test, difference with vehicle-treated group” value (ddC-rats [8]; SPM 927 3 mg/kg i.p.) was “reached the significance level”. The “paw withdrawal latency in von Frey filament test, difference with vehicle-treated group” value (ddC-rats [8]; SPM 927 10 mg/kg i.p.) was “reached the significance level”, the “paw withdrawal latency in von Frey filament test, difference with vehicle-treated group” value (ddC-rats [8]; SPM 927 30 mg/kg i.p.) was “reached the significance level” and the “threshold latency in cold bath test vs vincristine/vehicle” value (vincristine-rats [9]; SPM 927 3 mg/kg i.p., slightly greater than vincristine-animals) was “statistical difference was not reached”. The “threshold latency in cold bath test vs vincristine/vehicle” value (vincristine-rats [9]; SPM 927 10 mg/kg i.p., p<0.05 Dunnett's, comparable to control animals) was “significant increase” and the “threshold latency in cold bath test vs vincristine/vehicle” value (vincristine-rats [9]; SPM 927 30 mg/kg i.p., p<0.05 Dunnett's, comparable to control animals) was “significant increase”.
For `COc1cc(N(CC(=O)O)CC(=O)O)c2nc(COc3cc(C)ccc3N(CC(=O)O)CC(=O)O)ccc2c1` [Quin-2], the “reversal of nucleoside reverse transcriptase inhibitor-induced hypersensitivity” value [1] is listed as “capable of reversing”.
